Assay results from patent publication US7465559B2, “Method for calibrating antibiotic disk diffusion testing of microorganisms” (Bioscand AB, priority 2001, dated 2008).

How the values were obtained:
[1] = system: E. coli; assay: disk diffusion test of E. coli against gentamicin, laboratory KS, SRGA methodology; assay type: cell-based, Escherichia coli; details: 10 μg gentamicin disk
Method: (§1) Different types of susceptibility tests can be used to test the antimicrobic susceptibility of a microorganism. One type of susceptibility test is the disk diffusion test. This is a standardized test, in which a plate containing a growth medium in agar gel is inoculated with a microbial isolate and one or more disks impregnated with fixed concentrations of antibiotics are placed thereon. After appropriate incubation, the diameter of zones of inhibition around the disks (if present) are registered in order to determine the sensitivity of the inoculated microorganism to the particular antimicrobial agent impregnated in each disk.
(§2) In this example histograms of zone diameter values from disk test results for E. coli tested against the antibiotic gentamicin were analyzed according to the principle of normalized resistance interpretation. One laboratory (KS) used the SRGA (Swedish Reference Group for Antibiotics) methodology and a disk content of 10 μg gentamicin, whereas the other laboratory on a different continent (AR, a clinical microbiology laboratory in South America) used the NCCLS (National Committee for Clinical Laboratory Standards) standardization and a 5 μg gentamicin disk.
(§3) The different methods used result in different positionings of the major, susceptible populations of strains (FIG. 5). […]

[2] = system: E. coli; assay: disk diffusion test of E. coli against gentamicin, laboratory AR (South America), NCCLS standardization; assay type: cell-based, Escherichia coli; details: 5 μg gentamicin disk
Method: as §1, §2, §3

[3] = system: Escherichia coli isolates; assay: disk diffusion test of Escherichia coli clinical isolates against norfloxacin, Karolinska hospital, zone diameter histograms 1988 and 1999; assay type: cell-based
Method: as §1
The microbial species to be tested can be any cultivable microorganism, such as a bacterial species or a fungal species. In order to obtain species-related and laboratory-related interpretive breakpoints, a histogram of for example clinical isolates can be used. The method is especially suitable for analyzing inhibition zone diameters from disk diffusion tests with clinical isolates from a bacterial species, which may contain resistant strains against an antibiotic. Thus, no outliers are excluded. The number of isolates or percent isolates are plotted on the y-axis and the growth inhibition zone diameter values from paper disks impregnated with the antibiotic are plotted on the x-axis. When the method of O'Brien et al. (J. Am. Med. Assoc. 210:84, 1969) is used, histograms are obtained with percent isolates on the y-axis and zone diameter values from 6 mm (paper disk diameter) to 60 mm on the x-axis. However, the inventive method is equally well adapted for a microdilution tests, the concentration data being minimal inhibitory concentrations. All data can be computerized.
It can be seen that the zone diameter values for these clinical isolates cluster around 29-30 mm with a distribution of ±8 mm.
The results from 1988 in FIG. 1 were compared with similar results eleven years later (FIG. 2). In this histogram a number of isolates now appear, which have inhibition zones all the way down to no zone, the size of the 6 mm disk. The comparison was accomplished by means of computer analysis according to the inventive method for calibrating antimicrobic susceptibility testings of microorganisms.
First, the slope downwards was tracked and the shift to decreasing values at the peak position identified by comparing sliding means (each based on two zone diameter figures). Then, the percentages of the isolates of the upper half of the population were determined and converted to probit values. A regression using the least squares method was then performed and the theoretical percentages for the whole population calculated.
In this calculation, it is assumed that 3 SD below the mean includes 99.86 percent of the normally susceptible strains in this group. A suitable limit for susceptibility interpretation and comparative analysis of antimicrobic resistance could then be defined as three times the standard deviation below the mean value.

| Compound | R-limit for resistance (normalized zone breakpoint) [1] [mm] | R-limit for resistance (normalized zone breakpoint) [2] [mm] | mean value of inhibition zone diameters, customary statistical procedure ([3]; 1988, 3756 isolates, disk 10 μg, SD 3.22) [mm] | mean of normalized Gaussian distribution of theoretical normal population ([3]; 1988, 3756 isolates, disk 10 μg, SD 3.25) [mm] | zone diameter values of clinical isolates cluster around ([3]; 1988 histogram, disk content 10 μg, distribution ±8 mm) | limit for resistance (zone breakpoint, 3 SD below normalized mean) ([3]; 1988 population) [mm] | percent resistance of isolates ([3]; 1988 population, limit 19 mm) [%] | limit for resistance (zone breakpoint, 3 SD below normalized mean) ([3]; 1999 population) [mm] | percent resistance of isolates ([3]; 1999 population, limit 20 mm) [%] | mean of normalized Gaussian distribution of theoretical normal population ([3]; eleven years later (1999), 5944 isolates, SD 3.22) [mm] | mean value of inhibition zone diameters, customary statistical procedure ([3]; eleven years later (1999), all 5944 isolates, SD 7.39) [mm] |
| --- | --- | --- | --- | --- | --- | --- | --- | --- | --- | --- | --- |
| gentamicin | < 21 | < 17 |  |  |  |  |  |  |  |  |  |
| CCn1cc(C(=O)O)c(=O)c2cc(F)c(N3CCNCC3)cc21 [norfloxacin] |  |  | 29.16 | 29.27 | 29-30 mm | 19 | 0.56 | 20 | 10.8 | 30.49 | 28.24 |
